# Measurements taken from US10519177B2, “Heterocyclic compounds and uses thereof” (Plexxikon Inc., priority 2013, dated 2019).
# Where two headings read alike, the source gives them in different places.
# Columns and labels:
# MV-4-11 cells = assay: Oncology cell growth assay MV-4-11 (CellTiter Glo); format: cell-based; settings: Homo sapiens, MV4-11, 72 h, read-out: Cell activity (IC50 μM) MV-4-11 3d-Growth
# Summary of the method: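 Growth read by CellTiter Glo luminescence after 72 h compound treatment of MLL-AF4-bearing MV-4-11 cells (3000/well). Titration: 8 points, 1:3 steps, maximum 10 μM, 0.2% DMSO final. Data normalized to DMSO wells, four-parameter fit gives pIC50.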
# BRD4-BD12 (1-477) = BRD4-BD12 (1-477) (Homo sapiens (Human), UniProt O60885); assay: Alphascreen binding assay BRD4-BD12; settings: BRD4(1 2) H4; read-out: Biochemical activity (IC50 μM) BRD4(1 2) H4
# Protocol: Binding of compounds of formula (I) with bromodomain 2, 3 4 was assessed using Alphascreen binding assay. The inhibition of the interaction between bromodomain and its acetylated target protein (Filippakopoulos P et al. 2012) was measured quantitatively using recombinant BRD proteins, an acetylated Histone 4 peptide and AlphaScreen™ technology. In absence of inhibition the BRD protein bound to AlphaScreen™ nickel chelate acceptor beads can interact with the acetylated Histone 4 peptide which is immobilized by the AlphaScreen™ Streptavidin coated beads. This interaction brings donor and acceptor beads in proximity. The close proximity allows the singlet oxygen produced by laser excitation of the donor beads to reach the acceptor beads and generate a luminescence signal.
# Recombinant human bromodomains containing the N-terminal bromodomain (BRD2-BD1 (71-194), BRD3-BD1 (24-144) and BRD4-BD1 (44-164)) or dual bromodomains (BRD4-BD12 (1-477), BRD4-BD12 (1-472)) were prepared and purified as described in protein expression and purification session. The peptide is human Histone H41-21K5AcK8AcK12AcK16Ac-Biotin (Anaspec CA, USA).
# Protocol for BRD2, BRD3 and BRD4 assay: All components are prepared in buffer composed of 50 mM HEPES pH 7.5, 100 mM NaCl, 0.01% bovine serum albumin (“BSA”), 0.01% Triton X-100, 2 mM dithiothreitol (“DTT”). 7 μL of Bromodomain protein and 7 μL of peptide are added to wells containing 1 μL of various concentrations of test compounds of formula (I) or DMSO vehicle in an Alphaplate (PerkinElmer GA, USA) and incubated for 1 hour at room temperature. 4 μL donor and acceptor bead mixture is then added with final concentrations of 7.5 μg/ml. 30 minutes after bead addition, Alpha signal is read on the Envision spectrometer (λEx 680 nm, λEm 520-620 nm). Final concentrations of bromodomain proteins and peptide are as shown below.
# All data was normalized to the mean of 16 high and 16 low control wells on each plate. A four parameter curve fit of the following formula was then applied: Y=a+(b−a)/(1+(x/c)^d) Where ‘a’ is the minimum, ‘b’ is the maximum, ‘c’ is the pIC50 and ‘d’ is the Hill slope. Protein Expression and Purification
# Recombinant human bromodomains containing the N-terminal bromodomain (BRD2-BD1 (71-194), BRD3-BD1 (24-144) and BRD4-BD1 (44-164)) or dual bromodomains (BRD4-BD12 (1-477), BRD4-BD12 (1-472)) were expressed in E. coli cells (in a modified pET vector) with an N-terminal six-His tag and purified using a combination of both IMAC (Ni-affinity) and size exclusion chromatography steps.
# Recombinant BRD proteins were expressed using the E. coli strain BL21-CodonPlus (DE3) (Agilent Technologies CA, USA). Cells were grown in Terrific Broth (TB) media to an OD600 of 1.2 at 37° C. at which temperature was reduced to 25° C., protein was induced with 1.0 mM ispropyl-β-D-thiogalactopyranoside (“IPTG”) for 12-18 hours and harvested by centrifugation at 8000×g for 20 minutes. Cells were re-suspended in 0.1M K2PO4 pH 8.0, 250 mM NaCl, 10% Glycerol, 0.75% NP-40, 25 mM Imidazole, 5 mM beta-mercaptoethanol (“BME”) with 0.2 mg/ml Lysosyme, 2.0 mM phenylmethanesulfonyl fluoride (“PMSF”), 25 μg/ml DNAse I, incubated on ice for 30 minutes and lyzed with a cell disruptor (MicroFluidics MA, USA). The lysate was clarified by centrifugation at 20,000×g for 2 hours. The protein was captured with Ni-NTA resin (Life Technologies, USA). Contaminating proteins were washed off with 25 mM Tris-HCl pH 8.3, 250 mM NaCl, 12% Glycerol and 50 mM Imidazole. Following 3× wash steps, protein was eluted step wise using a 50 mM HEPES pH 7.5, 500 mM NaCl and 400 mM Imidazole. The protein was further purified using Gel Filtration column 26/600 Superdex 200 (GE Biosciences NJ, USA) in 50 mM HEPES pH 7.5, 250 mM NaCl. The protein was aliquoted and flash-frozen in liquid Nitrogen.
smiles,measurement,setting,value
"COc1cccc(Cn2cc(-c3ccc(C(=O)O)cc3)c3ncc(-c4c(C)noc4C)cc32)n1 [P-0931, 4-[6-(3,5-dimethylisoxazol-4-yl)-1-[(6-methoxy-2-pyridyl)methyl]pyrrolo[3,2-b]pyridin-3-yl]benzoic acid]",IC50,"MV-4-11 cells; MV-4-11, 3d growth",< 1 µM
same,IC50,BRD4-BD12 (1-477),< 1 µM
"Cc1noc(C)c1-c1cnc2c(-c3cnn(C)c3)cn(CC3(C)CCOCC3)c2c1 [P-0945, 3,5-dimethyl-4-[3-(1-methylpyrazol-4-yl)-1-[(4-methyltetrahydropyran-4-yl)methyl]pyrrolo[3,2-b]pyridin-6-yl]isoxazole]",IC50,"MV-4-11 cells; MV-4-11, 3d growth",< 1 µM
same,IC50,BRD4-BD12 (1-477),< 1 µM
"Cc1cc(-c2cn(C(c3ccccc3)c3ccccn3)c3cc(-c4c(C)noc4C)ccc23)ccc1C(=O)O (stereo not drawn) [P-1045, 4-[6-(3,5-dimethylisoxazol-4-yl)-1-[phenyl(2-pyridyl)methyl]indol-3-yl]-2-methyl-benzoic acid]",IC50,"MV-4-11 cells; MV-4-11, 3d growth",< 1 µM
same,IC50,BRD4-BD12 (1-477),< 1 µM
"CC[C@@H](c1ccccn1)n1cc(-c2ccc(C3(C(=O)O)CC3)cc2)c2ncc(-c3c(C)noc3C)cc21 [P-0969, 1-[4-[6-(3,5-dimethylisoxazol-4-yl)-1-[(1S)-1-(2-pyridyl)propyl]pyrrolo[3,2-b]pyridin-3-yl]phenyl]cyclopropanecarboxylic acid]",IC50,"MV-4-11 cells; MV-4-11, 3d growth",< 1 µM
same,IC50,BRD4-BD12 (1-477),< 1 µM
"Cc1noc(C)c1-c1cnc2c(-c3ccc(CC(=O)O)cc3)cn(C(c3ccccc3)c3ccccn3)c2c1 (stereo not drawn) [P-0903, 2-[4-[6-(3,5-dimethylisoxazol-4-yl)-1-[phenyl(2-pyridyl)methyl]pyrrolo[3,2-b]pyridin-3-yl]phenyl]acetic acid]",IC50,"MV-4-11 cells; MV-4-11, 3d growth",< 1 µM
same,IC50,BRD4-BD12 (1-477),< 1 µM
"CC[C@@H](c1ccccn1)n1cc(-c2ccc(C(=O)OC)cc2)c2ncc(-c3c(C)noc3C)cc21 [P-0966, methyl 4-[6-(3,5-dimethylisoxazol-4-yl)-1-[(1S)-1-(2-pyridyl)propyl]pyrrolo[3,2-b]pyridin-3-yl]benzoate]",IC50,"MV-4-11 cells; MV-4-11, 3d growth",< 1 µM
same,IC50,BRD4-BD12 (1-477),< 1 µM
"Cc1noc(C)c1-c1cnc2c(-c3ccc(C(C)(C)C#N)cc3)cn(CC3CCC(F)(F)CC3)c2c1 [P-0905, 2-[4-[1-[(4,4-difluorocyclohexyl)methyl]-6-(3,5-dimethylisoxazol-4-yl)pyrrolo[3,2-b]pyridin-3-yl]phenyl]-2-methyl-propanenitrile]",IC50,"MV-4-11 cells; MV-4-11, 3d growth",< 1 µM
same,IC50,BRD4-BD12 (1-477),< 1 µM
"COC(=O)c1ccc(-c2cn([C@@H](C)c3ccccn3)c3cc(-c4c(C)noc4C)cnc23)s1 [P-1006, methyl 5-[6-(3,5-dimethylisoxazol-4-yl)-1-[(1S)-1-(2-pyridyl)ethyl]pyrrolo[3,2-b]pyridin-3-yl]thiophene-2-carboxylate]",IC50,"MV-4-11 cells; MV-4-11, 3d growth",< 1 µM
same,IC50,BRD4-BD12 (1-477),< 1 µM
"Cc1noc(C)c1-c1cnc2c(c1)c(P(=O)(c1ccccc1)c1ccccc1)cn2-c1ccc(C(=O)O)cc1 [P-0951, 4-[5-(3,5-dimethylisoxazol-4-yl)-3-diphenylphosphoryl-pyrrolo[2,3-b]pyridin-1-yl]benzoic acid]",IC50,"MV-4-11 cells; MV-4-11, 3d growth",< 1 µM
same,IC50,BRD4-BD12 (1-477),< 1 µM
"COC(=O)c1ccc(-c2cn(Cc3cnc(C)s3)c3cc(-c4c(C)noc4C)cnc23)cc1 [P-0957, methyl 4-[6-(3,5-dimethylisoxazol-4-yl)-1-[(2-methylthiazol-5-yl)methyl]pyrrolo[3,2-b]pyridin-3-yl]benzoate]",IC50,"MV-4-11 cells; MV-4-11, 3d growth",< 1 µM
same,IC50,BRD4-BD12 (1-477),< 1 µM
"Cc1noc(C)c1-c1cnc2c(-c3ccccc3C(=O)O)cn(CC3CCC(F)(F)CC3)c2c1 [P-0398, 2-[1-[(4,4-difluorocyclohexyl)methyl]-6-(3,5-dimethylisoxazol-4-yl)pyrrolo[3,2-b]pyridin-3-yl]benzoic acid]",IC50,MV-4-11 cells,< 1 µM
same,IC50,BRD4-BD12 (1-477),< 1 µM
"Cc1noc(C)c1-c1cnc2c(-c3cccc(NS(C)(=O)=O)c3)cn([C@@H](C)c3ccccn3)c2c1 [P-0981, N-[3-[6-(3,5-dimethylisoxazol-4-yl)-1-[(1S)-1-(2-pyridyl)ethyl]pyrrolo[3,2-b]pyridin-3-yl]phenyl]methanesulfonamide]",IC50,"MV-4-11 cells; MV-4-11, 3d growth",< 1 µM
same,IC50,BRD4-BD12 (1-477),< 1 µM
"CCOCc1ccc(-c2cn(CC3CCC(F)(F)CC3)c3cc(-c4c(C)noc4C)cnc23)cc1 [P-0909, 4-[1-[(4,4-difluorocyclohexyl)methyl]-3-[4-(ethoxymethyl)phenyl]pyrrolo[3,2-b]pyridin-6-yl]-3,5-dimethyl-isoxazole]",IC50,"MV-4-11 cells; MV-4-11, 3d growth",< 1 µM
same,IC50,BRD4-BD12 (1-477),< 1 µM
"Cc1noc(C)c1-c1cnc2c(-c3csc(C(=O)O)c3)cn([C@@H](C)c3ccccn3)c2c1 [P-1005, 4-[6-(3,5-dimethylisoxazol-4-yl)-1-[(1S)-1-(2-pyridyl)ethyl]pyrrolo[3,2-b]pyridin-3-yl]thiophene-2-carboxylic acid]",IC50,"MV-4-11 cells; MV-4-11, 3d growth",1 to 10 µM
same,IC50,BRD4-BD12 (1-477),< 1 µM
"Cc1noc(C)c1-c1cnc2ccn(C(c3ccccc3)c3ccccn3)c2c1 (stereo not drawn) [P-0913, 3,5-dimethyl-4-[1-[phenyl(2-pyridyl)methyl]pyrrolo[3,2-b]pyridin-6-yl]isoxazole]",IC50,"MV-4-11 cells; MV-4-11, 3d growth",< 1 µM
same,IC50,BRD4-BD12 (1-477),< 1 µM
"Cc1noc(C)c1-c1ccc2c(-c3ccc(C(=O)O)cc3F)cn(C(c3ccccc3)c3ccccn3)c2c1 (stereo not drawn) [P-1044, 4-[6-(3,5-dimethylisoxazol-4-yl)-1-[phenyl(2-pyridyl)methyl]indol-3-yl]-3-fluoro-benzoic acid]",IC50,"MV-4-11 cells; MV-4-11, 3d growth",< 1 µM
same,IC50,BRD4-BD12 (1-477),< 1 µM
"Cc1noc(C)c1-c1ccc2c(-c3cccc(CC(=O)O)c3)cn(C(c3ccccc3)c3ccccn3)c2c1 (stereo not drawn) [P-1050, 2-[3-[6-(3,5-dimethylisoxazol-4-yl)-1-[phenyl(2-pyridyl)methyl]indol-3-yl]phenyl]acetic acid]",IC50,"MV-4-11 cells; MV-4-11, 3d growth",< 1 µM
same,IC50,BRD4-BD12 (1-477),< 1 µM
"Cc1noc(C)c1-c1cnc2c(-c3ccc(C4(C(=O)O)CC4)cc3)cn([C@@H](C)c3ccccn3)c2c1 [P-0955, 1-[4-[6-(3,5-dimethylisoxazol-4-yl)-1-[(1S)-1-(2-pyridyl)ethyl]pyrrolo[3,2-b]pyridin-3-yl]phenyl]cyclopropanecarboxylic acid]",IC50,"MV-4-11 cells; MV-4-11, 3d growth",< 1 µM
same,IC50,BRD4-BD12 (1-477),< 1 µM
"Cc1noc(C)c1-c1cnc2c(-c3ccc(C(=O)O)c(F)c3)cn(C(c3ccccn3)C3CCCC3)c2c1 (stereo not drawn) [P-1037, 4-[1-[cyclopentyl(2-pyridyl)methyl]-6-(3,5-dimethylisoxazol-4-yl)pyrrolo[3,2-b]pyridin-3-yl]-2-fluoro-benzoic acid]",IC50,"MV-4-11 cells; MV-4-11, 3d growth",< 1 µM
same,IC50,BRD4-BD12 (1-477),< 1 µM
"Cc1ccc(-c2cn([C@@H](C)c3ccccn3)c3cc(-c4c(C)noc4C)cnc23)cn1 [P-1019, 3,5-dimethyl-4-[3-(6-methyl-3-pyridyl)-1-[(1S)-1-(2-pyridyl)ethyl]pyrrolo[3,2-b]pyridin-6-yl]isoxazole]",IC50,"MV-4-11 cells; MV-4-11, 3d growth",< 1 µM
same,IC50,BRD4-BD12 (1-477),< 1 µM
"Cc1noc(C)c1-c1cnc2c(-c3ccc(C#N)nc3)cn(CC3(C)CCOCC3)c2c1 [P-0944, 5-[6-(3,5-dimethylisoxazol-4-yl)-1-[(4-methyltetrahydropyran-4-yl)methyl]pyrrolo[3,2-b]pyridin-3-yl]pyridine-2-carbonitrile]",IC50,"MV-4-11 cells; MV-4-11, 3d growth",< 1 µM
same,IC50,BRD4-BD12 (1-477),< 1 µM
